Laboratory results published in article PMC5830615 (Scientific Reports, 2018).

Legend:
[1] = tested on: soluble adenylyl cyclase (sAC); test: FRET assay of soluble adenylyl cyclase activity in HEK293-sAC cells transduced with H188; type: cell-based
Description: These actions of Rp-8-Br-cAMPS-pAB were not reproduced by the negative control 4-acetoxybenzy alcohol (4-Abn-OH) that lacks the cAMP moiety (Fig. 3e1,e2)[36].
HEK293-H188-C24 cells stably expressing H188 were plated at 80% confluence on 96-well clear-bottom assay plates (Costar 3904, Corning, NY) coated with rat tail collagen (Collaborative Biomedical Products, Bedford, MA). HEK293 cells stably expressing select GPCRs were transduced for 16 hours with H188 virus at a density of ca. 60,000 cells/well under conditions in which the multiplicity of infection (m.o.i.) was equivalent to 25 viral particles per cell. For all assays, the culture media was then removed and replaced by 200 μl/well of a standard extracellular saline (SES) solution supplemented with 11 mM glucose and 0.1% BSA[31],[34]–[36]. The composition of the SES was (in mM): 138 NaCl, 5.6 KCl, 2.6 CaCl2, 1.2 MgCl2, 11.1 glucose, and 10 Hepes (295 mOsmol, pH 7.4). Real-time kinetic assays of FRET were performed using a FlexStation 3 microplate reader equipped with monochromators (Molecular Devices, Sunnyvale, CA). Excitation light was delivered at 435/9 nm (455 nm cut-off), and emitted light was detected at 485/15 nm (CFP) or 535/15 nm (YFP)[31],[34]–[36]. […] The 485/535 emission ratio was calculated for each well and the mean +/− s.d. values for 12 wells were averaged. […]

wild-type HEK293 cells = test: FRET cAMP assay in wild-type HEK293 cells transduced with H188 (negative control); type: cell-based, human; conditions: WT HEK293 lacking recombinant receptors, H188 virus; IBMX at 50 μM
Description: (§1) HEK293-H188-C24 cells stably expressing H188 were plated at 80% confluence on 96-well clear-bottom assay plates (Costar 3904, Corning, NY) coated with rat tail collagen (Collaborative Biomedical Products, Bedford, MA). HEK293 cells stably expressing select GPCRs were transduced for 16 hours with H188 virus at a density of ca. 60,000 cells/well under conditions in which the multiplicity of infection (m.o.i.) was equivalent to 25 viral particles per cell. For all assays, the culture media was then removed and replaced by 200 μl/well of a standard extracellular saline (SES) solution supplemented with 11 mM glucose and 0.1% BSA[31],[34]–[36]. The composition of the SES was (in mM): 138 NaCl, 5.6 KCl, 2.6 CaCl2, 1.2 MgCl2, 11.1 glucose, and 10 Hepes (295 mOsmol, pH 7.4). Real-time kinetic assays of FRET were performed using a FlexStation 3 microplate reader equipped with monochromators (Molecular Devices, Sunnyvale, CA). Excitation light was delivered at 435/9 nm (455 nm cut-off), and emitted light was detected at 485/15 nm (CFP) or 535/15 nm (YFP)[31],[34]–[36]. The emission intensities were the averages of 12 excitation flashes for each time point per well.

human GLP-1R = test: FRET cAMP assay in HEK293-GLP-1R cells (stable human GLP-1R) virally transduced with H188; type: cell-based; conditions: HEK293-GLP-1R cells transduced with H188
Description: as §1

[2] = tested on: H188 (Epac1-based cAMP biosensor); test: FRET response of biosensor H188 to cAMP analogs and Epac inhibitors in HEK293-H188-C24 cells; type: cell-based
Text: (§2) H188 contains the cAMP sensor Epac1 in which the full-length protein is truncated to remove the Disheveled, Egl-10, and Pleckstrin (DEP) membrane-targeting domain so that its expression is confined largely to the cytoplasm (Fig. 2a,b)[30]. T781A and F782A mutations introduced within the CDC25 homology domain disrupt guanine nucleotide exchange factor (GEF) activity so that binding of cAMP to H188 is not linked to downstream signaling events mediated by the Epac1 effector protein Rap1 GTPase (Fig. 2a)[30]. In H188 the Epac1 backbone is flanked by an mTurquoise2Δ FRET donor chromophore at the N-terminus, and tandem cp173 Venus-Venus FRET acceptor chromophores at the C-terminus (Fig. 2a). Binding of cAMP reduces FRET so that when exciting with 440 nm light, there is an increase of 485 nm (mTuquoise2Δ) and a decrease of 535 nm (cp173 Venus-Venus) emission fluorescence. This ΔFRET is measured as an increase of the 485/535 nm FRET ratio.
HEK293-H188-C24 cells stably expressing H188 were plated at 80% confluence on 96-well clear-bottom assay plates (Costar 3904, Corning, NY) coated with rat tail collagen (Collaborative Biomedical Products, Bedford, MA). HEK293 cells stably expressing select GPCRs were transduced for 16 hours with H188 virus at a density of ca. 60,000 cells/well under conditions in which the multiplicity of infection (m.o.i.) was equivalent to 25 viral particles per cell. For all assays, the culture media was then removed and replaced by 200 μl/well of a standard extracellular saline (SES) solution supplemented with 11 mM glucose and 0.1% BSA[31],[34]–[36]. The composition of the SES was (in mM): 138 NaCl, 5.6 KCl, 2.6 CaCl2, 1.2 MgCl2, 11.1 glucose, and 10 Hepes (295 mOsmol, pH 7.4). Real-time kinetic assays of FRET were performed using a FlexStation 3 microplate reader equipped with monochromators (Molecular Devices, Sunnyvale, CA). Excitation light was delivered at 435/9 nm (455 nm cut-off), and emitted light was detected at 485/15 nm (CFP) or 535/15 nm (YFP)[31],[34]–[36]. The emission intensities were the averages of 12 excitation flashes for each time point per well. Test solutions dissolved in SES were placed in V-bottom 96-well plates (Greiner Bio-One, Monroe, NC), and an automated pipetting procedure was used to transfer 50 μl of each test solution to each well of the assay plate containing monolayers of these cells. The 485/535 emission ratio was calculated for each well and the mean +/− s.d. values for 12 wells were averaged. To facilitate comparisons amongst different experiments, these FRET ratio values were normalized using baseline subtraction so that a y-axis value of 1 corresponds to the initial baseline FRET ratio, whereas a value of 2 corresponds to a doubling of the FRET ratio. The time course of the ΔFRET ratio was plotted after exporting data to Origin 8.0 (OriginLab, Northampton, MA). Origin 8.0 was also used for generation of Hill plots describing dose-response relationships.

[3] = tested on: HEK293-H188-C24 cells (cAMP production); test: High-throughput FRET assay of cAMP, forskolin in HEK293-H188-C24 cells; type: cell-based; conditions: Homo sapiens; HEK293-H188-C24 monolayers, 96-well microplate reader, 485/535 nm FRET ratio; read-out: EC50 of forskolin for H188 ΔFRET (sensitivity)
Text: as §2
HEK293-H188-C24 cells stably expressing H188 were plated at 80% confluence on 96-well clear-bottom assay plates (Costar 3904, Corning, NY) coated with rat tail collagen (Collaborative Biomedical Products, Bedford, MA). […] Real-time kinetic assays of FRET were performed using a FlexStation 3 microplate reader equipped with monochromators (Molecular Devices, Sunnyvale, CA). […]

rat GIP receptor = test: FRET cAMP assay in HEK293 cells stably expressing GIP receptor, transduced with H188; type: cell-based; conditions: GIP 3 nM
Description: as §1

rat glucagon receptor = test: FRET cAMP assay in HEK293 cells stably expressing glucagon receptor, transduced with H188; type: cell-based; conditions: Glucagon 3 nM
Description: as §1

CC(C)Cn1c(=O)n(C)c(=O)c2[nH]cnc21 [IBMX, isobutylmethylxanthine]
Effect on levels of cAMP in HEK293-sAC cells ([1]; IBMX 50 μM, H188 by viral transduction): raised levels of cAMP | Effect on levels of cAMP in wild-type HEK293 cells (wild-type HEK293 cells): failed to raise levels of cAMP | Effect on the cAMP-elevating action of GLP-1 (human GLP-1R): potentiated the action of GLP-1

Nc1nc(Cl)cc(N(Cc2ccsc2)C2CC2)n1 [LRE1]
Effect on IBMX-induced rise of cAMP in HEK293-sAC cells ([1]; LRE1 50 μM versus IBMX 50 μM): blocked

Cl.c1ccc(C2CCCC2NC2=NCCCCCCCCCCC2)cc1 (stereo not shown) [MDL-12,330 A]
Effect on the cAMP-elevating action of GLP-1 (human GLP-1R): suppressed the action of GLP-1

CC(=O)Oc1ccc(CSP2(=O)OC[C@H]3O[C@@H](n4c(Br)nc5c(N)ncnc54)[C@H](O)[C@@H]3O2)cc1 (stereo partly shown) [Rp-8-Br-cAMPS-pAB]
Effect on baseline FRET ratio when administered alone [2]: weak partial agonist effect | Effect on ΔFRET measured in response to forskolin [2]: inhibited the ΔFRET

C=C[C@@]1(C)CC(=O)[C@]2(O)[C@@]3(C)[C@@H](O)CCC(C)(C)[C@@H]3[C@H](O)[C@H](OC(C)=O)[C@@]2(C)O1 [forskolin]
EC50 [3]: 500 nM

gastric inhibitory polypeptide (YAEGTFISDYSIAMDKIHQQDFVNWLLAQKGKKNDWKHNITQ) [GIP, hormone]
Effect on cAMP at GIP receptor, 3 nM (rat GIP receptor): did raise levels of cAMP

glucagon
Effect on cAMP at glucagon receptor, 3 nM (rat glucagon receptor): did raise levels of cAMP
